Molecules are shown by their SMILES.

This assay has as its target T1, microsomal triglyceride transfer protein (MTP) (Mesocricetus auratus, UniProt P55158).
T1 construct: The supernatant comprising the soluble MTP is dialysed against Tris/HCl 150 mM; from tissue; host or cells: golden hamster liver microsomes, deoxycholate-solubilised supernatant, dialysed
T1 sequence (P55158 19-895): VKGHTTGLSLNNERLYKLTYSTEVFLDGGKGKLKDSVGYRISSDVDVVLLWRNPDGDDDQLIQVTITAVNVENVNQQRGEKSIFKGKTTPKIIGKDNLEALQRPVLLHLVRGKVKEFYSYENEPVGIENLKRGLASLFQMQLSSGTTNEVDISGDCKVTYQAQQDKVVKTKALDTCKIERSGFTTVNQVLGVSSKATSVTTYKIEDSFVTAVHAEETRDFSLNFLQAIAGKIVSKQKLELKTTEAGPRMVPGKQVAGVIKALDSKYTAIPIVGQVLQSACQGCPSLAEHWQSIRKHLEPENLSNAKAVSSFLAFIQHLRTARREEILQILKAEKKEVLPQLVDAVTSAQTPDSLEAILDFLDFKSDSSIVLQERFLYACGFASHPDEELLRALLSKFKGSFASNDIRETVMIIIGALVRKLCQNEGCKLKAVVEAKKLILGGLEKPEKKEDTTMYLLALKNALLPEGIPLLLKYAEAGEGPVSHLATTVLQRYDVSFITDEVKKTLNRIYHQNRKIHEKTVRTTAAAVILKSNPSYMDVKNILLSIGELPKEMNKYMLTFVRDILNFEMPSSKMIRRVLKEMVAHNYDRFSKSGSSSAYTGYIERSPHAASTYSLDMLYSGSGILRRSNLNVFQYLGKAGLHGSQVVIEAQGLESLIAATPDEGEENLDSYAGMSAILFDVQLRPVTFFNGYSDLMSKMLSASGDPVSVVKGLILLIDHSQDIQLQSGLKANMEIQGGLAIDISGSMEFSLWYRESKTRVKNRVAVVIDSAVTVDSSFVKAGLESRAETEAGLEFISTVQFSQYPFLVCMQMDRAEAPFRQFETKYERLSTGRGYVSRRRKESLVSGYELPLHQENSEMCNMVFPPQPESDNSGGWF
Kind of assay: Inhibition of MTP activity: transfer of [3H]-triolein from donor liposomes to biotinylated LDL, SPA. Format: biochemical. The settings on record: MTP from golden hamster liver; incubation 18-24 hours at 37° C.; read-out: IC50, concentration that allows a 50% inhibition of MTP. The method, then:
Analysis of the Inhibition of MTP Activity
The inhibition of the activity of microsomal triglyceride transfer protein (MTP) was tested by using the following operating protocol.
The inhibition of MTP activity with a compound can be quantified by observing the inhibition of the transfer of a labelled triglyceride, from a donor particle to an acceptor particle, in the presence of MTP. The procedure for the preparation of MTP is based on the method by Wetterau and Zilversmit (Biochem. Biophys. Acta (1986) 875, 610). A few grams of golden hamster liver are taken and then rinsed several times in a 250 mM sucrose solution at 0° C. All the following steps proceed at +4° C. A homogenate at a concentration of 50% in 250 mM sucrose is prepared using a Teflon mill and then centrifuged for 10 minutes at 10 000×g at +4° C. The supernatant is then centrifuged at 105 000×g for 75 minutes at +4° C. The supernatant is discarded and the microsomal pellet is taken up in 3 ml (per g of starting liver) of Tris/HCl 150 mM pH 8.0. 1-ml aliquot fractions are stored at −80° C. until the time of use.
After thawing a fraction of microsomes (1 ml), 12 ml of refrigerated Tris/HCl 50 mM, KCl 50 mM, MgCl2 5 mM pH 7.4 buffers and 1.2 ml of deoxycholate (0.54% in water) are added. After incubation for 30 minutes at +4° C. with gentle agitation, the suspension is centrifuged at 105 000×g for 75 minutes. The supernatant comprising the soluble MTP is dialysed against Tris/HCl 150 mM, NaCl 40 mM, EDTA 1 mM, 0.02% sodium azide pH 7.4 buffer (5 times one litre over 2-3 days). The MTP is stored at +4° C., is stable for at least 30 days and is used in unmodified form in the test.
The donor particles (liposomes) are prepared from 208 μl of L-phosphatidylcholine at a concentration of 10 mg/ml in chloroform, and 480 μl of [3H]-triolein at a concentration of 0.5 mCi/ml in toluene. After stirring, the solution is evaporated under nitrogen, taken up in 6 ml of Tris/HCl 50 mM, KCl 50 mM, MgCl2 5 mM pH 7.4 buffer and incubated in an ultrasound bath for 30 minutes at room temperature. The liposomes are stored at +4° C. and sonicated again for 10 minutes before each use.
The acceptor particles are biotinylated low density lipoproteins (LDL-biot). These particles are supplied by the company Amersham.
The reaction mixture is prepared in untreated ½ well white plates (Corning Costar) by addition, in the following order, of: 5 μl of HEPES 50 mM, NaCl 150 mM, BSA 0.1% (w/v), 0.05% sodium azide (w/v), pH 7.4 buffer; 5 μl of liposome; 5 μl of LDL-biot; 5 μl of test products in DMSO; 5 μl of MTP. After incubation for 18-24 hours at 37° C., the reaction is stopped by adding 100 μl of Amersham SPA (Scintillation Proximity Assay) beads coupled to streptavidin, and the radioactivity is counted using a Top Count (Packard) machine at least one hour later. The inhibition of the transfer of the triglycerides with a compound is reflected by a reduction in the transferred radioactivity.
The results are expressed in terms of the IC50, i.e. the concentration that allows a 50% inhibition of MTP.
For `Cc1cccc(C(=O)Nc2cccc(OC3CCN(Cc4cccnc4)CC3)c2)c1-c1ccc(OC(F)(F)F)cc1` [Example 81, 6-methyl-N-[3-[[1-(3-pyridinylmethyl)-4-piperidinyl]oxy]phenyl]-4′-(trifluorometh-oxy)[1,1′-biphenyl]-2-carboxamide], the IC50 was 0.315 µM.
Then `Cc1cccc(C(=O)Nc2cccc(OC3CCN(C(=O)Nc4ccccc4)CC3)c2)c1-c1ccc(OC(F)(F)F)cc1` [Example 11, 4-[3-[[[6-methyl-4′-(trifluoromethoxy)[1,1′-biphenyl]-2-yl]carbonyl]amino]phenoxy]-N-phenyl-1-piperidinecarboxamide], with 0.347 µM; and `O=C(Nc1cccc(OC2CCN(C(=O)c3ccc([N+](=O)[O-])cc3)CC2)c1)c1ccccc1-c1ccc(OC(F)(F)F)cc1` [Example 112, N-[3-[[1-(4-nitrobenzoyl)-4-piperidinyl]-oxy]phenyl]-4′-(trifluaromethoxy)[1,1′-biphenyl]-2-carboxamide], with 0.241 µM; and `COc1cccc(NC(=O)N2CCC(Oc3cccc(NC(=O)c4cccc(C)c4-c4ccc(OC(F)(F)F)cc4)c3)CC2)c1` [Example 23, N-(3-methoxyphenyl)-4-[3-[[[6-methyl-4′-(trifluoromethoxy)[1,1′-biphenyl]-2-yl]-carbonyl]amino]phenoxy]-1-piperidine-carboxamide], with 0.261 µM.
Under `Cc1cccc(C(=O)Nc2cccc(OC3CCN(Cc4ccc(N(C)C)cc4)CC3)c2)c1-c1ccc(OC(F)(F)F)cc1` [Example 84, N-[3-[[1-[[4-(dimethylamino)phenyl]-methyl]-4-piperidinyl]oxy]phenyl]-6-methyl-4′-(trifluoromethoxy)[1,1′-biphenyl]-2-carboxamide] stands 0.382 µM; under `Cc1cccc(C(=O)Nc2cccc(OC3CCN(Cc4cccs4)CC3)c2)c1-c1ccc(OC(F)(F)F)cc1` [Example 59, [1,1′-biphenyl]-6-methyl-N-[3-[[1-(2-thienylmethyl)-4-piperidinyl]oxy]phenyl]-4′-(trifluoromethoxy)-2-carboxamide], 0.186 µM; under `Cc1ccc(CN2CCC(Oc3cccc(NC(=O)c4cccc(C)c4-c4ccc(OC(F)(F)F)cc4)c3)CC2)cc1` [Example 85, 6-methyl-N-[3-[[1-[(4-methylphenyl)-methyl]-4-piperidinyl]oxy]phenyl]-4′-(trifluoromethoxy)[1,1′-biphenyl]-2-carboxamide], 0.392 µM.
Then `Cc1cccc(C(=O)Nc2cccc(OC3CCN(C(=O)CC(C)C)CC3)c2)c1-c1ccc(OC(F)(F)F)cc1` [Example 129, 6-methyl-N-[3-[[1-(3-methyl-1-oxobutyl)-4-piperidinyl]oxy]phenyl]-4′-(trifluorometh-oxy)[1,1′-biphenyl]-2-carboxamide], with 0.136 µM; and `CCOC(=O)CNC(=O)N1CCC(Oc2cccc(NC(=O)c3cccc(C)c3-c3ccc(OC(F)(F)F)cc3)c2)CC1` [Example 31, ethyl N-[[4-[3-[[[6-methyl-4′-(trifluorometh-oxy)[1,1′-biphenyl]-2-yl]carbonyl]amino]-phenoxy]-1-piperidinyl]carbonyl]glycinate], with 0.0827 µM.
Take `Cc1cccc(C(=O)Nc2cccc(OC3CCN(S(=O)(=O)c4cccc5nonc45)CC3)c2)c1-c1ccc(OC(F)(F)F)cc1` [Example 20, N-[3-[[1-(2,1,3-benzoxadiazol-4-yl-sulfonyl)-4-piperidinyl]oxy]phenyl]-6-methyl-4′-(trifluoromethoxy)[1,1′-biphenyl]-2-carboxamide]: the IC50 stood at 0.392 µM.
Then `Cc1cccc(C(=O)Nc2cccc(OC3CCN(C(=O)Nc4ccc(F)cc4)CC3)c2)c1-c1ccc(OC(F)(F)F)cc1` [Example 25, N-(4-fluorophenyl)-4-[3-[[[6-methyl-4′-(trifluoromethoxy)[1,1′-biphenyl]-2-yl]-carbonyl]amino]phenoxy]-1-piperidine-carboxamide], with 0.367 µM; and `COCCOc1ccc(-c2ccccc2C(=O)Nc2cccc(OC3CCN(C(=O)OC(C)(C)C)CC3)c2)cc1` [Example 90, 1,1-dimethylethyl 4-[3-[[[4′-(2-methoxy-ethoxy)[1,1-biphenyl]-2-yl]carbonyl]-amino]phenoxy]-1-piperidinecarboxylate], with 0.392 µM; and `C=CCNC(=O)N1CCC(Oc2cccc(NC(=O)c3cccc(C)c3-c3ccc(OC(F)(F)F)cc3)c2)CC1` [Example 32, 4-[3-[[[6-methyl-4′-(trifluoromethoxy)[1,1′-biphenyl]-2-yl]carbonyl]amino]phenoxy]-N-2-propenyl-1-piperidinecarboxamide], with 0.161 µM.
Under `CSc1ccc(NC(=O)N2CCC(Oc3cccc(NC(=O)c4cccc(C)c4-c4ccc(OC(F)(F)F)cc4)c3)CC2)cc1` [Example 39, N-[4-(methylthio)phenyl]-4-[3-[[[6-methyl-4′-(trifluoromethoxy)[1,1′-biphenyl]-2-yl]-carbonyl]amino]phenoxy]-1-piperidine-carboxamide] stands 0.0857 µM; under `COc1cc(NC(=O)N2CCC(Oc3cccc(NC(=O)c4cccc(C)c4-c4ccc(OC(F)(F)F)cc4)c3)CC2)cc(OC)c1OC` [Example 38, 4-[3-[[[6-methyl-4′-(trifluoromethoxy)[1,1′-biphenyl]-2-yl]carbonyl]amino]phenoxy]-N-(3,4,5-trimethoxyphenyl)-1-piperidine-carboxamide], 0.422 µM.
Then `COC(=O)CCC(=O)N1CCC(Oc2cccc(NC(=O)c3ccccc3-c3ccc(OC(F)(F)F)cc3)c2)CC1` [Example 133, methyl γ-oxo-4-[3-[[[4′-(trifluoromethoxy)-[1,1′-biphenyl]-2-yl]carbonyl]amino]-phenoxy]-1-piperidinebutanoate], with 0.296 µM.
In the case of `Cc1cccc(C(=O)Nc2cccc(OC3CCN(C(=O)Nc4ccc(N(C)C)cc4)CC3)c2)c1-c1ccc(OC(F)(F)F)cc1` [Example 51, N-[4-(dimethylamino)phenyl]-4-[3-[[[6-methyl-4′-(trifluoromethoxy)[1,1′-biphenyl]-2-yl]carbonyl]amino]phenoxy]-1-piperidinecarboxamide], the IC50 amounted to 0.111 µM.
`Cc1cccc(C(=O)Nc2cccc(OC3CCN(Cc4cc5ccccc5o4)CC3)c2)c1-c1ccc(OC(F)(F)F)cc1` [Example 60, N-[3-[[1-(2-benzofuranylmethyl)-4-piperi-dinyl]oxy]phenyl]-6-methyl-4′-(trifluoro-methoxy)-[1,1′-biphenyl]-2-carboxamide]: the IC50 was 0.24 µM.
